Assay [1] concerns the target T1, IRAK4 protein in THP-1 cells (Homo sapiens, UniProt Q9NWZ3).
T1 construct: endogenous in cells; host or cells: THP-1
T1 sequence (Q9NWZ3 1-460): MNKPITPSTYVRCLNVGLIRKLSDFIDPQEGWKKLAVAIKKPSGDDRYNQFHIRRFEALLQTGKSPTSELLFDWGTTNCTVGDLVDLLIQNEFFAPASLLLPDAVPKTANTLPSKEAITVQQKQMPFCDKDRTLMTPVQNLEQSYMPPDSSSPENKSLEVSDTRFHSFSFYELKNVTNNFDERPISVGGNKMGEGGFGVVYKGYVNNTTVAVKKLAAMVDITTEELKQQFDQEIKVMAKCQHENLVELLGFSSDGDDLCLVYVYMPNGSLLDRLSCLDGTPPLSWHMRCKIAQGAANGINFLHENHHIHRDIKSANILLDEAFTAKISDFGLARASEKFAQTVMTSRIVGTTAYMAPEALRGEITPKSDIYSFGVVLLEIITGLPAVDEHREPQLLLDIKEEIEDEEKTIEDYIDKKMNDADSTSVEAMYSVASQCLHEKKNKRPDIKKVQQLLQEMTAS
Put plainly: Degradation of IRAK4 in THP-1 cells (Western blot). It counts as cell-based. Particulars: 24 hours, compound 1-3000 nM. On the procedure:
Each well of the 24-well cell culture plate was inoculated with 0.95 mL THP-1 cells (stem cell bank of Chinese academy of sciences) with a cell density of 5×10^5 cells/well. The cell plate was placed in a 5% carbon dioxide incubator and cultured overnight at 37° C., then 50 μL compound in dimethyl sulfoxide was added. The final concentration of the compound was in the range of 1-3000 nM. After continuous cultivation for 24 hours, the cells were collected into a 1.5 mL centrifuge tube, centrifuged at 1000 rpm and 4° C. for 5 minutes. Cell precipitation was cleaned twice with 1-DPBS, resuspended cells were lysed with 200 μL lysate (cell lysate was Western and IP cell lysate (Beyotime), supplemented with 1 mM mixture of phenylmethylsulfonyl fluoride and protease inhibitor (Beyotime)), left on ice for 30 minutes, then centrifuged at 14000 g at 4° C. for 10 minutes, and the supernatant was taken to detect IRAK4 protein level by Western blot.
Western blot method: The total protein concentration in the supernatant of cell lysis was determined by BCA protein quantitative kit (Tiangen). According to the concentration of total protein detected by BCA, the supernatant was adjusted to 0.2 μg/μL with PBS and 5× SDS-PAGE protein loading buffer (Beyotime), bathed in water at 100° C. for 10 minutes, then placed in ice bath for 5 minutes, centrifuged at 14000 g and 4° C. for 5 minutes, and then collected as WB loading sample. Prefabricated glue (KeyGEN) was used for protein electrophoresis with a loading amount of 10 μL (total protein 2 μg). After Tris-MOPS-SDS electrophoresis solution (Adamas), 120V constant pressure electrophoresis was performed. After electrophoresis, the protein on the adhesive strip was transferred to PVDF membrane with a constant current of […] for 50 minutes. After the membrane was transferred, the membrane was placed in 1×QuickBlock blocking buffer (Beyotime) and incubated for 30 minutes at room temperature. After blocking, PVDF membranes were incubated with IRAK4 primary antibody (Abcam) overnight at 4°, the membranes were washed with TBST buffer (2.4 g Tris, 8.8 g NaCl, 1.5 mL Tween 20, pH adjusted to 7.4, constant volume to 1 L) for 30 minutes, incubated with secondary antibody (Abcam) for 2 hours at room temperature, finally incubated with Clarity Western ECL Substrate(BIO-RAD) for 5 minutes for luminescence development, chemiluminescence imaging system (Clinx, chemiScope 6200 Touch) for development and protein mapping photography. The protein map was analyzed by Clinx chemiluminescence analysis software for grayscale values. Using the formula: grayscale correction value=(target protein grayscale value/corresponding internal reference grayscale value)×10^3, the grayscale correction value of each sample was calculated. The degradation rate was calculated by comparing with the grayscale correction value of the control group. Furthermore, DC50 and Dmax values of the compound were obtained by the nonlinear curve fitting with the logarithmic concentration-inhibition rate by GraphPad Prism 7.
Background: Immunoblotting shows a protein as a band on a membrane.

Assay [2] has as its target T2, IRAK4 kinase (Homo sapiens, UniProt Q9NWZ3).
T2 sequence (Q9NWZ3 1-460): T1 sequence (Q9NWZ3 1-460)
Put plainly: IRAK4 kinase activity test (KinEASE-STK S1 HTRF kit). It counts as biochemical. Particulars: 2.5 nM kinase, 1 μM biotinylated polypeptide substrate, 7 μM ATP, 37° C. 120 min. On the procedure: KinEASE-STK S1 serine/threonine kinase kit (Cisbio) was used to detect the inhibitory effect of the compound on IRAK4 kinase activity. The specific method was: the compound was dissolved in dimethyl sulfoxide, and then it was diluted with the buffer solution of the kit by equal gradient to make the final concentration range of the tested compound in the reaction system 10000 nM-0.038 nM, then 2.5 nM kinase, 1 μM biotinylated polypeptide substrate and 7 μM adenosine triphosphate (ATP) were added in sequence and incubated at 37° C. for 120 min. Subsequently, anti-phosphorylated serine/threonine antibody coupled with europium element compound and modified XL665 streptavidin were added to the reaction system to terminate the reaction. After incubating at room temperature for 1 h, the fluorescence intensity of each well at the emission wavelength of 620 nm and 665 nm and the excitation wavelength of 337 nm was determined in HTRF mode on the microplate reader EnVision(PerkinElmer), the ratio value was calculated using the formula Ratio=(665 nm/620 nm)×10^4. By comparing with the fluorescence intensity ratio of the control group, the inhibition rate of the compound at each concentration was calculated, and then the IC50 value of the compound was obtained by fitting the nonlinear curve with the logarithmic concentration-inhibition rate by GraphPad Prism 7.

Take `COc1cc2nn(C3CCN(CCCN4CCN(C(=O)c5ccc(OC)c(N6CCC(=O)NC6=O)c5)CC4)CC3)cc2cc1NC(=O)c1cccc(C(F)(F)F)n1` [Example 19, N-(2-(1-(3-(4-(3-(2,4-dioxotetrahydro-pyrimidin-1 (2H)-yl)-4-me-thoxybenzoyl)piperazin-1-yl)propyl)piperidin-4-yl)-6-methoxy-2H-in-dazol-5-yl)-6-(trifluorometh-yl) pyridinecarbox-amide]: in assay [1], half-maximal degradation (DC50) was put at 13.4 nM and the greatest degradation seen (Dmax) stood at 92.8%. The same molecule showed an IC50 in assay [2] of 16.9 nM.
In assay [1], `COc1cc2nn(C3CCN(CCOC4CCN(C(=O)c5ccc(OC)c(N6CCC(=O)NC6=O)c5)CC4)CC3)cc2cc1NC(=O)c1cccc(C(F)(F)F)n1` [Example 20] yielded a DC50 of 12.2 nM and a Dmax of 93.7%. This molecule had an IC50 in assay [2] of 9.5 nM.
The corresponding values for `COc1ccc(C(=O)N2CCC3(CCC(CCN4CCC(n5cc6cc(NC(=O)c7cccc(C(F)(F)F)n7)c(C(C)(C)O)cc6n5)CC4)CC3)CC2)cc1N1CCC(=O)NC1=O` [Example 21, N-(2-(1-(2-(3-(3-(2,4-dioxotetrahydro-pyrimidin-1 (2H)-yl)-4-me-thoxybenzoyl)-3-azaspiro [5.5]undec-9-yl)ethyl)piperidin-4-yl)-6-(2-hydroxyprop-2-yl)-2H-indazol-5-yl)-6-(trifluoro-methyl) pyridinecarbox-amide] are 4 nM, 90.1% and 18 nM.
`COc1ccc(C(=O)N2CCC(CCCN3CCC(n4cc5cc(NC(=O)c6cccc(C(F)(F)F)n6)c(C(C)(C)O)cc5n4)CC3)CC2)cc1N1CCC(=O)NC1=O` [Example 22, N-(2-(1-(3-(1-(3-(2,4-dioxotetrahydro-pyrimidin-1 (2H)-yl)-4-me-thoxybenzoyl)piperidin-4-yl)propyl)piperidin-4-yl)-6-(2-hydroxyprop-2-yl)-2H-inda-zol-5-yl)-6-(trifluoromethyl) pyridinecarbox-amide]: in assay [1], it took 16.4 nM to reach half-maximal degradation (DC50) and the maximal degradation (Dmax) worked out at 94.3%. The same molecule registered a 50% inhibitory concentration (IC50) in assay [2] of 11.7 nM.
On the same counts, the results for `COc1ccc(C(=O)N2CCC(OCCN3CCC(n4cc5cc(NC(=O)c6cccc(C(F)(F)F)n6)c(C(C)(C)O)cc5n4)CC3)CC2)cc1N1CCC(=O)NC1=O` [Example 23, N-(2-(1-(2-((1-(3-(2,4-dioxotetrahydro-pyrimidin-1 (2H)-yl)-4-me-thoxybenzoyl)piperidin-4-yl)oxy)ethyl)piperdin-4-yl)-6-(2-hydroxyprop-2-yl)-2H-inda-zol-5-yl)-6-(triflu-oromethyl) pyridinecarbox-amide] are 32.4 nM, 97.6% and 8.5 nM.
On the same counts, the results for `CCOc1ccc(C(=O)N2CCC3(CC2)CC(CCN2CCC(n4cc5cc(NC(=O)c6cccc(C(F)(F)F)n6)c(C(C)(C)O)cc5n4)CC2)C3)cc1N1CCC(=O)NC1=O` [Example 25] are 0.82 nM, 98% and 13.7 nM.
The corresponding values for `COc1ccc(C(=O)N2CCC3(CC2)CC(CCN2CCC(n4cc5cc(NC(=O)c6cccc(C(F)(F)F)n6)c(C(C)(C)O)cc5n4)CC2)C3)cc1N1CCC(=O)NC1=O` [Example 26] are 1 nM, 86.9% and 6.5 nM.
In assay [1], `CC(C)(O)c1cc2nn(C3CCN(CCC4CC5(CCN(C(=O)c6ccc(Cl)c(N7CCC(=O)NC7=O)c6)CC5)C4)CC3)cc2cc1NC(=O)c1cccc(C(F)(F)F)n1` [Example 27] gave a 50% degradation concentration (DC50) of 3.5 nM and a Dmax of 96.3%. In assay [2], this molecule displayed an IC50 of 13.8 nM.
In assay [1], `COc1cc2nn(C3CCN(CC4CCC5(CC4)CCN(C(=O)c4ccc(OC)c(N6CCC(=O)NC6=O)c4)CC5)CC3)cc2cc1NC(=O)c1cccc(C(F)(F)F)n1` [Example 30, N-(2-(1-((3-(3-(2,4-dioxotetrahydro-pyrimidin-1 (2H)-yl)-4-me-thoxybenzoyl)-3-azaspiro[5.5]undec-9-yl)methyl)piperidin-4-yl)-6-methoxy-2H-indazol-5-yl)-6-(tri-fluoromethyl) pyridinecarbox-amide] displayed a DC50 of 2.3 nM and a Dmax of 98.4%. The molecule further gave an IC50 in assay [2] of 16 nM.
Take `COc1ccc(C(=O)N2CCC3(CCC(CN4CCC(n5cc6cc(NC(=O)c7cccc(C(F)(F)F)n7)c(C(C)(C)O)cc6n5)CC4)CC3)CC2)cc1N1CCC(=O)NC1=O` [Example 33, N-(2-(1-((3-(3-(2-4-dioxotetrahydro-pyrimidin-1 (2H)-yl)-4-me-thoxybenzoyl)-3-azaspiro [5.5]undec-9-yl)methyl)piperdin-4-yl)-6-(2-hydroxyprop-2-yl)-2H-indazol-5-yl)-6-(trifluoro-methyl) pyridinecarbox-amide]: in assay [1], the DC50 turned out to be 2.1 nM and the greatest degradation seen (Dmax) was 96.6%. Moreover, the IC50 in assay [2] came to 17.2 nM.
In assay [1], `CC(C)(O)c1cc2nn(C3CCN(CCC4CCN(C(=O)c5ccc(Cl)c(N6CCC(=O)NC6=O)c5)CC4)CC3)cc2cc1NC(=O)c1cccc(C(F)(F)F)n1` [Example 35] had a DC50 of 8.4 nM and a Dmax of 95.2%. The molecule further showed an IC50 in assay [2] of 10.3 nM.
On the same counts, the results for `CC(C)(O)c1cc2nn(C3CCN(CC4CC5(CCN(C(=O)c6ccc(Cl)c(N7CCC(=O)NC7=O)c6)CC5)C4)CC3)cc2cc1NC(=O)c1cccc(C(F)(F)F)n1` [Example 36, N-(2-(1-((7-(4-chloro-3-(2,4-dioxotetrahydro-pyrimidin-1 (2H)-yl)benzoyl)-7-azaspiro [3.5]non-2-yl)methyl)piperdin-4-yl)-6-(2-hydroxyprop-2-yl)-2H-indazol-5-yl)-6-(trifluoro-methyl) pyridinecarbox-amide] are 4 nM, 92.5% and 11.8 nM.
In assay [1], `COc1cc2nn(C3CCN(CC4CC5(CCN(C(=O)c6ccc(Cl)c(N7CCC(=O)NC7=O)c6)CC5)C4)CC3)cc2cc1NC(=O)c1cccc(C(F)(F)F)n1` [Example 39, N-(2-(1-((7-(4-chloro-3-(2,4-dioxotetrahydro-pyrimidin-1 (2H)-yl)benzoyl)-7-azospiro [3.5]non-2-yl)methyl)piperidin-4-yl)-6-methoxy-2H-indazol-5-yl)-6-(trifluoromethyl) pyridinecarbox-amide] registered a DC50 of 10.5 nM and a Dmax of 89.4%. Moreover, the half-inhibitory concentration (IC50) in assay [2] is 16.7 nM.

As usually defined, the DC50 is the midpoint of the concentration-degradation curve. Broadly, the Dmax is the largest share of the target that was removed. A higher Dmax goes with a fuller loss of target. Usually IC50 stands for the concentration that inhibits the measured activity by half. Low readings indicate higher potency, high ones lower potency.

The values are drawn from patent publication US20230234936A1, “COMPOUND FOR TARGETING AND DEGRADING PROTEIN, AND PREPARATION METHOD THEREFOR AND USE THEREOF” (SHANGHAI LEADINGTAC PHARMACEUTICAL CO., LTD., priority 2020, published 2023).
